Tests used:
Type in all cases: physicochemical
[1] = Melt temperature (Tm); conditions: result in words
Experimental: The melt temperature was measured by placing approximately 15 grams sample in a 25 cc sealed glass vial and placing the vial in a water bath. The temperature of the bath was increased periodically in discrete increments and the contents checked after approximately 1 hour at a given temperature. The melt temperature was taken as the temperature at which the mixture became very low in viscosity.

[2] = Viscosity (Brookfield LVDV-I+ viscometer, 23° C.); conditions: result in words
Experimental: In the following Examples (except where indicated) viscosity was measured at 23° C. at ambient pressure using a Brookfield LVDV-I^+ viscometer equipped with a model D Brookfield heliopath and T spindles B-F. The spindle and speed was chosen for each particular sample such that the viscometer was operating in the middle of its range. All samples were allowed to equilibrate at 23° C. for 24 hours prior to measurement. Preferably the viscosity is taken at the lowest speed possible while staying within 20-80% of the viscometer range and more preferably between 30-70% of the range. In all cases the sample size and container geometry was chosen to ensure that there were no wall effects. By "wall effects" it is meant the viscosity value is not affected by the container and is essentially equivalent to the viscosity taken in an infinitely large container. For this reason lower viscosity samples required a larger sample size to accommodate the larger spindles. The following table outlines preferred spindles for various sample viscosities.
The viscosity of each sample was taken as the highest relatively stable reading achieved on the first path the spindle traversed using the heliopath adapter.

[3] = Emulsion stability; conditions: concentrations below about 1% by weight

Molecule	effect of emollient on melt temperature of the composition [1]	effect of emollient on viscoelasticity of certain emulsifier systems [2]	phase separation when heated above the melt temperature [3]
trioctyldodecyl citrate	significantly decrease the melt temperature of some systems		
CCCCCCCCCCCCCCCC [hexadecane]		can increase the viscoelasticity of certain emulsifier systems	
CCCCCCCCCCCCOCCOCCOCCOCCO [laureth-4]	tends to decrease the melt temperature of the composition		does not phase out

From patent US6019997A, “Hydroalcoholic compositions for transdermal penetration of pharmaceutical agents” (priority 1997, dated 2000)
